Measured values as given in patent US11072617B2, “Bicyclic sulfones and sulfoxides and methods of use thereof” (Genentech, Inc., priority 2017, dated 2021).

Target: human RIP1 kinase domain (2-375) (Homo sapiens (Human), UniProt Q13546)
Assay: RIP1 kinase inhibition biochemical assay (Transcreener ADP, fluorescence polarization)
Settings: Ki app from tight-binding Morrison equation; 50 nM enzyme, 50 uM ATP, 2 hours incubation
Outline: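 Baculovirus-expressed human RIP1 kinase domain (2-375), 50 nM, incubated 2 h with compounds in pH 7.5 Hepes, 30 mM MgCl2, 50 uM ATP, 0.5% DMSO. ADP detected by Transcreener fluorescence-polarization tracer displacement; Ki^app from Morrison tight-binding fit.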

human RIP1 kinase domain (2-375), sequence (Q13546 2-375): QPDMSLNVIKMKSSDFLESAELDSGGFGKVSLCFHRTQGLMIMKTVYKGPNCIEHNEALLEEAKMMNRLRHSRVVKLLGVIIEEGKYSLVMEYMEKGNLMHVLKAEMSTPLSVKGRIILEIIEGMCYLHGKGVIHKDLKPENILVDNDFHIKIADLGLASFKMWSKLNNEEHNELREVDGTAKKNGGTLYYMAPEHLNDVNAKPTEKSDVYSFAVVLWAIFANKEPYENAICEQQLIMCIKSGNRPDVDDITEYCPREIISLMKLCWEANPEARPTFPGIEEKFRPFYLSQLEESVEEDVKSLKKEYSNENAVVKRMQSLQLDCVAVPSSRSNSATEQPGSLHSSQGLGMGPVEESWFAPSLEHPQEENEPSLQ

Row | SMILES | Ki [nM]
1 | [O-][S@@+](c1nc2n(n1)[C@H](c1ccccc1)C[C@@H]2F)C1CC1 [Example 28, (5S,7S)-2-[(R)-cyclopropylsulfinyl]-7-fluoro-5-phenyl-6,7-dihydro-5H-pyrrolo[1,2-b][1,2,4]triazole] | 89
2 | [O-][S@+](CF)c1nc2n(n1)[C@H](c1cc(F)ccc1F)C[C@@H]2F (single isomer, unassigned) [Example 79] | 190
3 | CCCS(=O)(=O)c1nc2n(n1)[C@H](c1ccccc1)C[C@@H]2F (single isomer, unassigned) [Example 161] | 26
4 | O=S(=O)(c1nc2n(n1)[C@H](c1cc(F)ccc1F)C[C@@H]2F)C1CC1F (stereo in doubt) [Example 201, (5S,7S)-5-(2,5-difluorophenyl)-7-fluoro-2-[(1S,2S)-2-fluorocyclopropyl]sulfonyl-6,7-dihydro-5H-pyrrolo[1,2-b][1,2,4]triazole] | 25
5 | CC1(S(=O)(=O)c2nc3n(n2)[C@H](c2ccccc2)C[C@@H]3F)CC1 (single isomer, unassigned) [Example 150] | 21
6 | O=S(=O)(c1cc2n(n1)[C@H](c1ccccc1)C[C@@H]2F)C1CC1 [Example 31, (4S,6S)-2-cyclopropylsulfonyl-4-fluoro-6-phenyl-5,6-dihydro-4H-pyrrolo[1,2-b]pyrazole] | 10
7 | O=S(=O)(c1nc2n(n1)[C@H](c1c(F)ccc(F)c1F)C[C@@H]2F)C(F)F (single isomer, unassigned) [Example 59] | 7
8 | [2H][C@H]1C[C@@H](c2ccccc2)n2nc(S(=O)(=O)C3CC3)nc21 [Example 41, (5S,7S)-2-cyclopropylsulfonyl-7-deuterio-5-phenyl-6,7-dihydro-5H-pyrrolo[1,2-b][1,2,4]triazole] | 140
9 | [O-][S@+](c1nc2n(n1)[C@H](c1ccccc1)C[C@@H]2F)C1CC1 [Example 29, (5S,7S)-2-[(S)-cyclopropylsulfinyl]-7-fluoro-5-phenyl-6,7-dihydro-5H-pyrrolo[1,2-b][1,2,4]triazole] | 4
10 | O=S(=O)(c1nc2n(n1)[C@@H](c1ccccc1Cl)CC2)C(F)F [Example 15, (5R)-5-(2-chlorophenyl)-2-(difluoromethylsulfonyl)-6,7-dihydro-5H-pyrrolo[1,2-b][1,2,4]triazole] | 1600
11 | O=S(=O)(c1nc2n(n1)[C@H](c1cccc(Cl)c1F)C[C@@H]2F)[C@@H]1C[C@H]1F [Example 208, (5S,7S)-5-(3-chloro-2-fluoro-phenyl)-7-fluoro-2-[(1R,2R)-2-fluorocyclopropyl]sulfonyl-6,7-dihydro-5H-pyrrolo[1,2-b][1,2,4]triazole] | 7
12 | N#C[C@@H]1C[C@H]1S(=O)(=O)c1nc2n(n1)[C@H](c1ccccc1)C[C@@H]2F [Example 212, (1S,2R)-2-[[(5S,7S)-7-fluoro-5-phenyl-6,7-dihydro-5H-pyrrolo[1,2-b][1,2,4]triazol-2-yl]sulfonyl]cyclopropanecarbonitrile] | 11
13 | [O-][S+](c1nc2n(n1)C(c1ccccc1)CC2)C(F)F (stereo not shown) [Example 1, 2-(difluoromethylsulfinyl)-5-phenyl-6,7-dihydro-5H-pyrrolo[1,2-b][1,2,4]triazole] | 58
14 | O=S(=O)(c1nc2n(n1)[C@H](c1ccccc1)C[C@@H]2F)C1CC12CC2 (stereo partly drawn) [Example 170, (5S,7S)-7-fluoro-5-phenyl-2-spiro[2.2]pentan-2-ylsulfonyl-6,7-dihydro-5H-pyrrolo[1,2-b][1,2,4]triazole] | < 5
15 | N#CC[S@+]([O-])c1nc2n(n1)[C@H](c1cccc(F)c1)C[C@@H]2F (single isomer, unassigned) [Example 97] | 190
16 | N#CC1(S(=O)(=O)c2nc3n(n2)[C@H](c2ccccc2)C[C@@H]3F)CC1 (single isomer, unassigned) [Example 157] | 23
17 | O=S(=O)(c1nc2n(n1)CCC2c1ccccc1)C(F)F (racemic) [Example 220, 2-(Difluoromethylsulfonyl)-7-phenyl-6,7-dihydro-5H-pyrrolo[1,2-b][1,2,4]triazole] | 100

Row | SMILES | Ki [nM]
18 | O=S(=O)(c1nc2n(n1)[C@H](c1cccc(F)c1F)C[C@@H]2F)C1CC1F (stereo in doubt) [Example 216, (5S,7S)-5-(2,3-difluorophenyl)-7-fluoro-2-[(1S,2S)-2-fluorocyclopropyl]sulfonyl-6,7-dihydro-5H-pyrrolo[1,2-b][1,2,4]triazole] | < 5
19 | [O-][S@@+](c1nc2n(n1)[C@H](c1ccccc1F)C[C@@H]2F)C(F)F (single isomer, unassigned) [Example 51] | 140
20 | O=S(=O)(c1nc2n(n1)[C@H](c1cc(F)cc(Cl)c1)C[C@@H]2F)C1CC1 (single isomer, unassigned) [Example 214] | 29
21 | [O-][S+](c1nc2n(n1)[C@H](c1cc(F)cc(F)c1)CC2)C(F)F (stereo in doubt) [Example 174, (5S)-2-[(R)-difluoromethylsulfinyl]-5-(3,5-difluorophenyl)-6,7-dihydro-5H-pyrrolo[1,2-b][1,2,4]triazole] | 310
22 | O=S(=O)(c1nc2n(n1)[C@H](c1cc(Cl)ccc1F)C[C@@H]2F)C1CC1 (single isomer, unassigned) [Example 47] | 67
23 | O=S(=O)(CF)c1nc2n(n1)[C@H](c1ccccc1)C[C@@H]2F (single isomer, unassigned) [Example 72] | 23
24 | CCS(=O)(=O)c1nc2n(n1)C(c1ccccc1)CC2 (racemic) [Example 2, 2-ethylsulfonyl-5-phenyl-6,7-dihydro-5H-pyrrolo[1,2-b][1,2,4]triazole] | 864
25 | [O-][S@@+](c1nc2n(n1)[C@H](c1ccccc1Cl)CC2)C(F)F [Example 17, (5S)-5-(2-chlorophenyl)-2-[(S)-difluoromethylsulfinyl]-6,7-dihydro-5H-pyrrolo[1,2-b][1,2,4]triazole] | 50
26 | N#Cc1cccc([C@@H]2C[C@H](F)c3nc(S(=O)(=O)C(F)F)nn32)c1 (single isomer, unassigned) [Example 192] | 350
27 | [O-][S@+](c1nc2n(n1)[C@H](c1ccccc1Cl)CC2)C(F)F [Example 18, (5S)-5-(2-chlorophenyl)-2-[(R)-difluoromethylsulfinyl]-6,7-dihydro-5H-pyrrolo[1,2-b][1,2,4]triazole] | 8
28 | O=S(=O)(c1nc2n(n1)[C@H](c1ccccc1Cl)C[C@@H]2F)[C@@H]1CC1(F)F (single isomer, unassigned) [Example 125] | < 5
29 | O=S(=O)(c1nc2n(n1)[C@H](c1ccc(F)c(F)c1)C[C@@H]2F)[C@H]1C[C@@H]1F (single isomer, unassigned) [Example 143] | 31
30 | CC(C)S(=O)(=O)c1nc2n(n1)[C@H](c1ccccc1)C[C@@H]2F (single isomer, unassigned) [Example 110] | 14
31 | O=S(=O)(c1nc2n(n1)[C@H](c1ccccc1F)C[C@@H]2F)C(F)F (single isomer, unassigned) [Example 53] | 13
32 | O=S(=O)(c1nc2n(n1)[C@H](c1cccc(Cl)c1F)C[C@@H]2F)C1CC1 (single isomer, unassigned) [Example 46] | 20
33 | O=S(=O)(c1nc2n(n1)[C@H](c1ccc(F)cc1)C[C@@H]2F)C(F)F (single isomer, unassigned) [Example 56] | 55
34 | CC(C)(C#N)S(=O)(=O)c1nc2n(n1)[C@H](c1ccccc1)C[C@@H]2F (single isomer, unassigned) [Example 104] | 14
